Results: patent US20190038571A1, “Orally Available Small Molecules to Inhibit the Function of the Complement System” (priority 2017, published 2019)

What was measured:
[1] = system: classical complement pathway; assay: sheep erythrocyte lysis assay (complement-mediated lysis of sensitized sheep erythrocytes in normal human serum); format: cell-based; details: for Inhibition of complement-mediated sheep erythrocyte lysis: 240 nM to 50 uM added to normal human serum, 37° C., 30 min, hemoglobin absorption at 412 nm
Protocol: FIG. 1. […] Various concentrations of pterostilbene, ranging from 240 nM to 50 uM were added to normal human serum, which was then incubated at 37° C. with sensitized sheep erythrocytes.
The lysis of the sheep erythrocytes is mediated by the classical complement pathway.
Various concentrations of pterostilbene, ranging from 240 nM to 50 uM were added to normal human serum, which was then incubated at 37° C. with sensitized sheep erythrocytes. After a 30 min incubation, the remaining unlysed erythrocytes were pelleted by centrifugation and the amount of hemoglobin released by cell lysis was quantified by absorption spectroscopy at wavelength of 412 nm. Inhibition of lysis indicates reduced complement activity. This is representative data from 3 separate experiments.

[2] = in vivo; cited from earlier work
CA1 neurons = details: in vivo; cited from earlier work
C5a receptor = target: T1, C5a receptor (Mus musculus, UniProt P30993); details: cited from earlier work
T1 sequence (P30993 1-351): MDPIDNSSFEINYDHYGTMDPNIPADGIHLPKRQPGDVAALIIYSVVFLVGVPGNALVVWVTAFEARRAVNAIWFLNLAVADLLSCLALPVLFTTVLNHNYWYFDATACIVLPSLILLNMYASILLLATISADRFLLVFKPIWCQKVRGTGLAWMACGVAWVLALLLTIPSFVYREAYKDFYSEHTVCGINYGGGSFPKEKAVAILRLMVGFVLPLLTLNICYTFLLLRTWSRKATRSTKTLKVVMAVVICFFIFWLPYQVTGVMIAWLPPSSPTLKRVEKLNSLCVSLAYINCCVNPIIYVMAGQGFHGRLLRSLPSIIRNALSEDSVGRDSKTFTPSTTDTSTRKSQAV

| Molecule | Inhibition of complement-mediated sheep erythrocyte lysis [1] | concentration active to inhibit complement system ([1]; in human serum) | potency in the sheep erythrocyte lysis assay relative to the other stilbene ([1]; pterostilbene versus resveratrol) | bioavailability [2] | protection of CA1 neurons from ischemia reperfusion damage (CA1 neurons) | beta amyloid induced loss of MAP-2 (C5a receptor) |
| --- | --- | --- | --- | --- | --- | --- |
| COc1cc(/C=C/c2ccc(O)cc2)cc(OC)c1 [CCB-695, pterostilbene] | inhibition of complement-mediated sheep erythrocyte lysis | lower than 1 μM | greater potency than resveratrol | superior pharmacokinetics and bioavailability | – | – |
| Oc1ccc(C=Cc2cc(O)cc(O)c2)cc1 [Resveratrol] | active | – | – | poor bioavailability | protects CA1 neurons from ischemia reperfusion damage | – |
| PMX53 | – | – | – | – | – | blocked |
